From patent US20040224898A1, “Compositions and methods for promoting lipid mobilization in humans” (priority 2002, published 2004)
Bridges are numbered along the chain shown (N, C = ends). Where no end group is shown, it is not given here.

What was measured:
Format in all cases: cell-based
human adipocytes [1] = experiment: Release of tritium label from radiolabeled palmitate (lipid mobilizing activity); settings: for Ability to mobilize lipids in adipocytes: conclusion of Example 1, murine adipocytes
Method: Lipid mobilizing activity was assessed by assaying release of tritium label from radiolabeled palmitate. This assay was performed by maintaining human pre-adipocytes in Adipocyte Growth Medium (AGM), which is Dulbecco's Modified Eagle's Medium (DMEM) mixed 1:1 by volume with Ham's F-10 medium. Ham's F-10 medium comprises 15 millimolar HEPES buffer adjusted to pH 7.4 and supplemented with biotin, pantothenate, human recombinant insulin, dexamethasone, fungicide, bactericide, and 3% (v/v) fetal bovine serum). Pre-adipocytes differentiated to become mature adipocytes by three weeks of maintenance in AGM. On the day prior to assay, the adipocytes were washed and incubated overnight in Krebs-Ringers buffer comprising 0.1% fatty acid-free bovine serum albumin (BSA) and comprising 1 microCurie per milliliter of tritiated (9,10-^3H) palmitate. The following day, the medium was removed, and the cells were washed three times […]. Isoproterenol (0 to 5×10^−8 molar), Schistocera gregaria AKH II (0 to 5×10^−5 molar), or Krebs-Ringer buffer (with 0.1% fatty acid-free BSA) containing neither of these was added to the cell suspension in a volume of 150 microliters. The suspensions were incubated for 4 hours at 37° C., and then 100 microliters of each sample was subjected to scintillation counting to detect released label in the supernatant. The total amount of label incorporated was determined for each well by solubilizing the cells using 1% sodium dodecyl sulfate and subjecting the entire contents of the well to scintillation counting. Fractional release of label was calculated by dividing the amount of label detected in cell supernatant by the total amount of label detected in the supernatant and in the cells remaining in the well, and percentage release was calculated by multiplying fractional release by 100.
A similar study was done using the same methods, except that cockroach hypertrehalosemic factor (0 to 5×10^−5 molar) was used in place of S. gregaria AKH II.
A similar tritium label release experiment performed using Heliothis zea AKH II and Locusta migratoria, except that a two-hour incubation period was used in place of a 4 hour incubation period.

human adipocytes [2] = experiment: Glycerol release assay; settings: for Lipid mobilizing activity: control hormones, Example 2; for Ability to promote lipid mobilization in human adipocytes: conclusion of Example 2
Method: (§1) Human pre-adipocytes were isolated by liposuction and maintained in AGM for three weeks in order to permit the pre-adipocytes to differentiate to become mature adipocytes. AGM was removed, and adipocytes were incubated in Krebs-Ringers buffer comprising 0.1% fatty acid-free BSA at 37° C. for five hours in the presence of selected concentrations (10^−9 to 10^−5 molar) of one of Schistocera gregaria AKH II, cockroach hypertrehalosemic factor (obtained from Sigma Chemical Co, St. Louis, Mo., catalog number P0175), and Locusta migratoria AKH I (obtained from American Peptide Co., Sunnyvale, Calif., catalog number 60-9-18). Glycerol released from the adipocytes was assayed using a commercially available kit (GPO-trinder assay kit available form Sigma Chemical Company, St. Louis, Mo.).
A similar experiment was performed, in which glycerol release from adipocytes was assessed in the presence of the Locusta migratoria AKH I or the cockroach hypertrehalosemic factor or in the presence of isoproterenol.

human adipocytes [3] = experiment: Effect of propanolol on agent-induced glycerol release; settings: for Glycerol Release, No Agent (medium concentration in millimolar): propanolol alone
Method: as §1
Glycerol release assays were performed as described in Example 2, except that the assays were performed using single selected concentrations of one of cockroach hypertrehalosemic factor, Locusta migratoria AKH I, and isoproterenol and multiple selected concentrations of propanolol.

[4] = agent 1 × 10^−8 molar, 4 hours, 37° C., Table 5 experiment
[5] = agent 1 × 10^−9 molar, 4 hours, 37° C., Table 5 experiment
[6] = agent 1 × 10^−10 molar, 4 hours, 37° C., Table 5 experiment
[7] = agent 1 × 10^−6, Table 9 experiment
[8] = agent 1 × 10^−7, Table 9 experiment
[9] = agent 1 × 10^−8, Table 9 experiment
[10] = agent 1 × 10^−5 molar, five hours, 37° C., Table 8 experiment
[11] = agent 1 × 10^−6 molar, five hours, 37° C., Table 8 experiment
[12] = agent 1 × 10^−7 molar, five hours, 37° C., Table 8 experiment
[13] = agent 1 × 10^−8 molar, five hours, 37° C., Table 8 experiment
[14] = agent 1 × 10^−9 molar, five hours, 37° C., Table 8 experiment

CC(C)NCC(O)c1ccc(O)c(O)c1 (stereo not shown) [Isoproterenol, isoproterenol, reference compound]
% Tritium Label Release with Agent (human adipocytes [1]; [4]): 15.58% | % Tritium Label Release with Agent (human adipocytes [1]; agent 1 × 10^−8 molar, 4 hours, 37° C., Table 6 experiment): 9.8% | % Tritium Label Release with Agent (human adipocytes [1]; [5]): 12.67% | % Tritium Label Release with Agent (human adipocytes [1]; agent 1 × 10^−9 molar, 4 hours, 37° C., Table 6 experiment): 6.67% | % Tritium Label Release with Agent (human adipocytes [1]; [6]): 11.11% | % Tritium Label Release with Agent (human adipocytes [1]; agent 1 × 10^−10 molar, 4 hours, 37° C., Table 6 experiment): 8.97% | % Tritium Label Release with Agent (human adipocytes [1]; agent 1 × 10^−11 molar, 4 hours, 37° C., Table 5 experiment): 9.9% | % Tritium Label Release with Agent (human adipocytes [1]; agent 1 × 10^−11 molar, 4 hours, 37° C., Table 6 experiment): 5.87% | % Tritium Label Release with Agent (human adipocytes [1]; agent 5 × 10^−8 molar, 4 hours, 37° C., Table 5 experiment): 16.99% | % Tritium Label Release with Agent (human adipocytes [1]; agent 5 × 10^−8 molar, 4 hours, 37° C., Table 6 experiment): 10.8% | % Tritium Label Release with Agent (human adipocytes [1]; agent 5 × 10^−9 molar, 4 hours, 37° C., Table 5 experiment): 14.14% | % Tritium Label Release with Agent (human adipocytes [1]; agent 5 × 10^−9 molar, 4 hours, 37° C., Table 6 experiment): 5.93% | % Tritium Label Release with Agent (human adipocytes [1]; agent 5 × 10^−10 molar, 4 hours, 37° C., Table 5 experiment): 11.21% | % Tritium Label Release with Agent (human adipocytes [1]; agent 5 × 10^−10 molar, 4 hours, 37° C., Table 6 experiment): 7.58% | % Tritium Label Release with Agent (human adipocytes [1]; agent 5 × 10^−11 molar, 4 hours, 37° C., Table 5 experiment): 10.62% | % Tritium Label Release with Agent (human adipocytes [1]; agent 5 × 10^−11 molar, 4 hours, 37° C., Table 6 experiment): 6.96% | % Tritium Label Release with Agent (human adipocytes [1]; agent 5 × 10^−12 molar, 4 hours, 37° C., Table 5 experiment): 10.12% | % Tritium Label Release with Agent (human adipocytes [1]; agent 5 × 10^−12 molar, 4 hours, 37° C., Table 6 experiment): 6.81% | Glycerol Release with Agent (medium concentration in millimolar) (human adipocytes [2]; [7]): 0.5172 ± 0.1659 millimolar | Glycerol Release with Agent (medium concentration in millimolar) (human adipocytes [2]; [8]): 0.2169 ± 0.0316 millimolar | Glycerol Release with Agent (medium concentration in millimolar) (human adipocytes [2]; [9]): 0.1325 ± 0.0244 millimolar | Glycerol Release with Agent (medium concentration in millimolar) (human adipocytes [2]; agent 1 × 10^−9, Table 9 experiment): 0.0381 ± 0.011 millimolar | Glycerol Release with Agent (medium concentration in millimolar) (human adipocytes [3]; agent 1 micromolar, propanolol 0 molar): 0.5172 millimolar | Glycerol Release with Agent (medium concentration in millimolar) (human adipocytes [3]; agent 1 micromolar, propanolol 1 × 10^−5 molar): 0.2305 millimolar | Glycerol Release with Agent (medium concentration in millimolar) (human adipocytes [3]; agent 1 micromolar, propanolol 1 × 10^−6 molar): 0.411 millimolar | Glycerol Release with Agent (medium concentration in millimolar) (human adipocytes [3]; agent 1 micromolar, propanolol 1 × 10^−7 molar): 0.6533 millimolar

CC(C)NCC(O)COc1cccc2ccccc12 (stereo not shown) [Propanolol, propanolol]
Inhibition by propanolol of glycerol release induced by isoproterenol (human adipocytes [3]; adipocytes): able to inhibit glycerol release | Glycerol Release, No Agent (medium concentration in millimolar) (human adipocytes [3]; 1 × 10^−5 molar): 0.0463 ± 0.0042 millimolar | Glycerol Release, No Agent (medium concentration in millimolar) (human adipocytes [3]; 1 × 10^−6 molar): 0.0417 ± .00072 millimolar | Glycerol Release, No Agent (medium concentration in millimolar) (human adipocytes [3]; 1 × 10^−7 molar): 0.0399 ± 0.0069 millimolar | Glycerol Release, No Agent (medium concentration in millimolar) (human adipocytes [3]; 1 × 10^−8 molar): 0.0399 ± 0.0083 millimolar

DFDMLRCMLGRVYRPCWQV (disulfide 7-16 (inferred); listed as Insect sp.) [melanocyte concentrating hormone, reference compound]
Lipid mobilizing activity (human adipocytes [2]): No lipid mobilizing activity could be detected

ELNFSTGW (listed as Schistocerca gregaria) [Schistocera gregaria AKH II, insect adipokinetic hormone of the desert locust]
% Tritium Label Release with Agent (human adipocytes [1]; agent 1 × 10^−5 molar, 4 hours, 37° C., Table 5 experiment): 14.28% | % Tritium Label Release with Agent (human adipocytes [1]; agent 1 × 10^−6 molar, 4 hours, 37° C., Table 5 experiment): 13.38% | % Tritium Label Release with Agent (human adipocytes [1]; agent 1 × 10^−7 molar, 4 hours, 37° C., Table 5 experiment): 10.76% | % Tritium Label Release with Agent (human adipocytes [1]; [4]): 10.76% | % Tritium Label Release with Agent (human adipocytes [1]; [5]): 9.6% | % Tritium Label Release with Agent (human adipocytes [1]; [6]): 10.74% | % Tritium Label Release with Agent (human adipocytes [1]; agent 5 × 10^−5 molar, 4 hours, 37° C., Table 5 experiment): 16.65% | % Tritium Label Release with Agent (human adipocytes [1]; agent 5 × 10^−6 molar, 4 hours, 37° C., Table 5 experiment): 14.94% | % Tritium Label Release with Agent (human adipocytes [1]; agent 5 × 10^−7 molar, 4 hours, 37° C., Table 5 experiment): 11.31% | Ability to mobilize lipids in adipocytes (human adipocytes [1]): able to mobilize lipids | Glycerol Release with Agent (medium concentration in millimolar) (human adipocytes [2]; [10]): 0.693 millimolar | Glycerol Release with Agent (medium concentration in millimolar) (human adipocytes [2]; [11]): 0.628 millimolar | Glycerol Release with Agent (medium concentration in millimolar) (human adipocytes [2]; [12]): 0.530 millimolar | Glycerol Release with Agent (medium concentration in millimolar) (human adipocytes [2]; [13]): 0.523 millimolar | Glycerol Release with Agent (medium concentration in millimolar) (human adipocytes [2]; [14]): 0.486 millimolar | Ability to promote lipid mobilization in human adipocytes (human adipocytes [2]): able to promote lipid mobilization

ELNFTPNWGT (listed as Schistocerca gregaria) [Locusta migratoria AKH I, insect adipokinetic hormone, American Peptide Co. catalog number 60-9-18]
% Tritium Label Release with Agent (human adipocytes [1]; agent 1 × 10^−5 molar, two-hour incubation, Table 7): 10.8% | % Tritium Label Release with Agent (human adipocytes [1]; agent 1 × 10^−6 molar, two-hour incubation, Table 7): 7.52% | % Tritium Label Release with Agent (human adipocytes [1]; agent 1 × 10^−7 molar, two-hour incubation, Table 7): 6.34% | % Tritium Label Release with Agent (human adipocytes [1]; agent 1 × 10^−8 molar, two-hour incubation, Table 7): 7.00% | % Tritium Label Release with Agent (human adipocytes [1]; agent 1 × 10^−9 molar, two-hour incubation, Table 7): 7.44% | % Tritium Label Release with Agent (human adipocytes [1]; agent 1 × 10^−10 molar, two-hour incubation, Table 7): 7.62% | Ability to mobilize lipids in adipocytes (human adipocytes [1]): able to mobilize lipids | Glycerol Release with Agent (medium concentration in millimolar) (human adipocytes [2]; agent 1 × 10^−5, Table 9 experiment): 0.0871 ± 0.0134 millimolar | Glycerol Release with Agent (medium concentration in millimolar) (human adipocytes [2]; [10]): 0.691 millimolar | Glycerol Release with Agent (medium concentration in millimolar) (human adipocytes [2]; [7]): 0.0427 ± 0.0129 millimolar | Glycerol Release with Agent (medium concentration in millimolar) (human adipocytes [2]; [11]): 0.467 millimolar | Glycerol Release with Agent (medium concentration in millimolar) (human adipocytes [2]; [8]): 0.0336 ± 0.0082 millimolar | Glycerol Release with Agent (medium concentration in millimolar) (human adipocytes [2]; [12]): 0.490 millimolar | Glycerol Release with Agent (medium concentration in millimolar) (human adipocytes [2]; [9]): 0.0209 ± 0.0110 millimolar | Glycerol Release with Agent (medium concentration in millimolar) (human adipocytes [2]; [13]): 0.476 millimolar | Glycerol Release with Agent (medium concentration in millimolar) (human adipocytes [2]; [14]): 0.611 millimolar | Ability to promote lipid mobilization in human adipocytes (human adipocytes [2]): able to promote lipid mobilization | Glycerol Release with Agent (medium concentration in millimolar) (human adipocytes [3]; agent 10 micromolar, propanolol 0 molar): 0.0871 ± 0.0134 millimolar | Glycerol Release with Agent (medium concentration in millimolar) (human adipocytes [3]; agent 10 micromolar, propanolol 1 × 10^−5 molar): 0.2214 ± 0.0287 millimolar | Glycerol Release with Agent (medium concentration in millimolar) (human adipocytes [3]; agent 10 micromolar, propanolol 1 × 10^−6 molar): 0.2169 ± 0.0294 millimolar | Glycerol Release with Agent (medium concentration in millimolar) (human adipocytes [3]; agent 10 micromolar, propanolol 1 × 10^−7 molar): 0.2486 ± 0.0249 millimolar

SYSMEHFRWGKPV (Ac-SYSMEHFRWGKPV-NH2; listed as Insect sp.) [alpha-melanocyte stimulating hormone, reference compound]
Lipid mobilizing activity (human adipocytes [2]): No lipid mobilizing activity could be detected
